In PubChem BioAssay AID2060495 (Molecular Pharmacology Branch, DTP, NCI, 2025):

Tested on: 521955-158-R2-J5-PDC complex spheroid viability
Test: Anticancer human tumor 521955-158-R2-J5-PDC patient-derived pancreatic carcinoma cell line growth inhibition [GQUAD]
Conditions: for IC50: curve of first compound; for viability, T/C: stronger effect = lower value; active = viability on the fitted dose curve at most 10% of control; inactive = the rest
In short: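 Viability of tumor cells grown as complex spheroids with endothelial and stromal cells, exposed to drug combinations. Top concentration at or near clinical Cmax (else 10 microM), diluted in half-log increments.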

[1] = second compound 0.0316 µM, first compound 0.0316 µM
[2] = second compound 0.0316 µM, first compound 0.1 µM
[3] = second compound 0.0316 µM, first compound 0.316 µM
[4] = second compound 0.0316 µM, first compound 1 µM
[5] = second compound 0.0316 µM, first compound 3.16 µM
[6] = second compound 0.0316 µM, first compound 10 µM
[7] = second compound 0.1 µM, first compound 0.0316 µM
[8] = second compound 0.1 µM, first compound 0.1 µM
[9] = second compound 0.1 µM, first compound 0.316 µM
[10] = second compound 0.1 µM, first compound 1 µM
[11] = second compound 0.1 µM, first compound 3.16 µM
[12] = second compound 0.1 µM, first compound 10 µM
[13] = second compound 0.316 µM, first compound 0.0316 µM
[14] = second compound 0.316 µM, first compound 0.1 µM
[15] = second compound 0.316 µM, first compound 0.316 µM
[16] = second compound 0.316 µM, first compound 1 µM
[17] = second compound 0.316 µM, first compound 3.16 µM
[18] = second compound 0.316 µM, first compound 10 µM
[19] = second compound 1 µM, first compound 0.0316 µM
[20] = second compound 1 µM, first compound 0.1 µM
[21] = second compound 1 µM, first compound 0.316 µM
[22] = second compound 1 µM, first compound 1 µM
[23] = second compound 1 µM, first compound 3.16 µM
[24] = second compound 1 µM, first compound 10 µM
[25] = second compound 3.16 µM, first compound 0.0316 µM
[26] = second compound 3.16 µM, first compound 0.1 µM
[27] = second compound 3.16 µM, first compound 0.316 µM
[28] = second compound 3.16 µM, first compound 1 µM
[29] = second compound 3.16 µM, first compound 3.16 µM
[30] = second compound 3.16 µM, first compound 10 µM
[31] = second compound 10 µM, first compound 0.0316 µM
[32] = second compound 10 µM, first compound 0.1 µM
[33] = second compound 10 µM, first compound 0.316 µM
[34] = second compound 10 µM, first compound 1 µM
[35] = second compound 10 µM, first compound 3.16 µM
[36] = second compound 10 µM, first compound 10 µM
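Also: spheroids exposed to agents for one week before reading.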
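For viability, T/C in this document: 100% = DMSO vehicle control viability.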

CC(=O)O[C@H]1C(=O)[C@@]2(C)[C@H]([C@H](OC(=O)c3ccccc3)[C@]3(O)C[C@H](OC(=O)[C@H](O)[C@@H](NC(=O)c4ccccc4)c4ccccc4)C(C)=C1C3(C)C)[C@]1(OC(C)=O)CO[C@@H]1C[C@@H]2O + Cc1cnc(CNC(=O)c2c(=O)c3ccc(N4CCCN(C)CC4)nc3n3c2sc2ccccc23)cn1
inactive: viability, T/C [1] 23.3% | viability, T/C [2] 14.8% | viability, T/C [3] 11.8% | viability, T/C [4] 13.7% | viability, T/C [5] 11.2% | viability, T/C [6] 12.1% | viability, T/C [7] 24.5% | viability, T/C [8] 15.2% | viability, T/C [9] 15.3% | viability, T/C [10] 10.4% | viability, T/C [11] 12% | viability, T/C [12] 14.6% | viability, T/C [13] 24.6% | viability, T/C [14] 16.7% | viability, T/C [15] 12.1% | viability, T/C [16] 10.6% | viability, T/C [17] 12% | viability, T/C [18] 12.1% | viability, T/C [19] 15.1% | viability, T/C [20] 11%
active: viability, T/C [21] 8.58% | viability, T/C [22] 9.85% | viability, T/C [23] 10.3% | viability, T/C [24] 8.46% | viability, T/C [25] 9.56% | viability, T/C [26] 3.21% | viability, T/C [27] 0.92% | viability, T/C [28] 0.43% | viability, T/C [29] 0.28% | viability, T/C [30] 3.89% | viability, T/C [31] 0.14% | viability, T/C [32] 2.35% | viability, T/C [33] 0.16% | viability, T/C [34] 0.27% | viability, T/C [35] 2.45% | viability, T/C [36] 0.15%
< 31.6 nM: IC50 (second compound 0.0316 µM) | IC50 (second compound 0.1 µM) | IC50 (second compound 0.316 µM) | IC50 (second compound 1 µM) | IC50 (second compound 3.16 µM) | IC50 (second compound 10 µM)

CC[C@@]1(O)C(=O)OCc2c1cc1n(c2=O)Cc2cc3c(CN(C)C)c(O)ccc3nc2-1 + Cc1cnc(CNC(=O)c2c(=O)c3ccc(N4CCCN(C)CC4)nc3n3c2sc2ccccc23)cn1
56.2 nM: IC50 (second compound 0.0316 µM)
inactive: viability, T/C (second compound 0.0316 µM, first compound 0.000999 µM) 82.3% | viability, T/C (second compound 0.0316 µM, first compound 0.00316 µM) 80.4% | viability, T/C (second compound 0.0316 µM, first compound 0.00999 µM) 59.7% | viability, T/C [1] 71.6% | viability, T/C (second compound 0.0316 µM, first compound 0.0999 µM) 29% | viability, T/C [3] 12.1% | viability, T/C (second compound 0.1 µM, first compound 0.000999 µM) 74.9% | viability, T/C (second compound 0.1 µM, first compound 0.00316 µM) 78% | viability, T/C (second compound 0.1 µM, first compound 0.00999 µM) 73.3% | viability, T/C [7] 46.7% | viability, T/C (second compound 0.1 µM, first compound 0.0999 µM) 22.4% | viability, T/C [9] 16.2% | viability, T/C (second compound 0.316 µM, first compound 0.000999 µM) 51.6% | viability, T/C (second compound 0.316 µM, first compound 0.00316 µM) 47.2% | viability, T/C (second compound 0.316 µM, first compound 0.00999 µM) 55% | viability, T/C [13] 29.6% | viability, T/C (second compound 0.316 µM, first compound 0.0999 µM) 18.7% | viability, T/C [15] 15.6% | viability, T/C (second compound 1 µM, first compound 0.000999 µM) 23.7% | viability, T/C (second compound 1 µM, first compound 0.00316 µM) 24.9% | viability, T/C (second compound 1 µM, first compound 0.00999 µM) 24.6% | viability, T/C [19] 19% | viability, T/C (second compound 1 µM, first compound 0.0999 µM) 16.7% | viability, T/C [21] 11.2% | viability, T/C (second compound 3.16 µM, first compound 0.000999 µM) 21.1% | viability, T/C (second compound 3.16 µM, first compound 0.00316 µM) 29.1% | viability, T/C (second compound 3.16 µM, first compound 0.00999 µM) 18.2% | viability, T/C [25] 17.8% | viability, T/C (second compound 3.16 µM, first compound 0.0999 µM) 11.8% | viability, T/C (second compound 10 µM, first compound 0.000999 µM) 21.3% | viability, T/C (second compound 10 µM, first compound 0.00316 µM) 23.7% | viability, T/C (second compound 10 µM, first compound 0.00999 µM) 22.1% | viability, T/C [31] 15.7% | viability, T/C (second compound 10 µM, first compound 0.0999 µM) 11.5%
10.7 nM: IC50 (second compound 0.316 µM)
27.8 nM: IC50 (second compound 0.1 µM)
active: viability, T/C [27] 10.1% | viability, T/C [33] 6.12%
< 0.999 nM: IC50 (second compound 1 µM) | IC50 (second compound 3.16 µM) | IC50 (second compound 10 µM)

COc1cc(C2c3cc4c(cc3C(OC3OC5COC(C)OC5C(O)C3O)C3COC(=O)C23)OCO4)cc(OC)c1O (stereo unspecified) + Cc1cnc(CNC(=O)c2c(=O)c3ccc(N4CCCN(C)CC4)nc3n3c2sc2ccccc23)cn1
< 31.6 nM: IC50 (second compound 0.316 µM) | IC50 (second compound 1 µM) | IC50 (second compound 3.16 µM) | IC50 (second compound 10 µM)
340 nM: IC50 (second compound 0.1 µM)
active: viability, T/C [6] 9.69% | viability, T/C [24] 10.2% | viability, T/C [30] 8.61%
241 nM: IC50 (second compound 0.0316 µM)
inactive: viability, T/C [1] 84.4% | viability, T/C [2] 70.8% | viability, T/C [3] 42.8% | viability, T/C [4] 23.2% | viability, T/C [5] 12.1% | viability, T/C [7] 59.2% | viability, T/C [8] 55.3% | viability, T/C [9] 49.3% | viability, T/C [10] 37.8% | viability, T/C [11] 16% | viability, T/C [12] 11% | viability, T/C [13] 45.2% | viability, T/C [14] 42.2% | viability, T/C [15] 36.5% | viability, T/C [16] 19.8% | viability, T/C [17] 14% | viability, T/C [18] 12.1% | viability, T/C [19] 23.2% | viability, T/C [20] 28.4% | viability, T/C [21] 19.2% | viability, T/C [22] 17.4% | viability, T/C [23] 10.3% | viability, T/C [25] 19.2% | viability, T/C [26] 18% | viability, T/C [27] 19.6% | viability, T/C [28] 17% | viability, T/C [29] 6.27% | viability, T/C [31] 15.6% | viability, T/C [32] 17.8% | viability, T/C [33] 18.8% | viability, T/C [34] 16.7% | viability, T/C [35] 10.2% | viability, T/C [36] 8.93%
